These results are taken from patent US9073926B2, “Heterocyclic compounds containing a pyrrolopyridine or benzimidazole core” (Boehringer Ingelheim International GmbH, priority 2009, dated 2015).

Chain of Human RSK2 (P51812 whole entry): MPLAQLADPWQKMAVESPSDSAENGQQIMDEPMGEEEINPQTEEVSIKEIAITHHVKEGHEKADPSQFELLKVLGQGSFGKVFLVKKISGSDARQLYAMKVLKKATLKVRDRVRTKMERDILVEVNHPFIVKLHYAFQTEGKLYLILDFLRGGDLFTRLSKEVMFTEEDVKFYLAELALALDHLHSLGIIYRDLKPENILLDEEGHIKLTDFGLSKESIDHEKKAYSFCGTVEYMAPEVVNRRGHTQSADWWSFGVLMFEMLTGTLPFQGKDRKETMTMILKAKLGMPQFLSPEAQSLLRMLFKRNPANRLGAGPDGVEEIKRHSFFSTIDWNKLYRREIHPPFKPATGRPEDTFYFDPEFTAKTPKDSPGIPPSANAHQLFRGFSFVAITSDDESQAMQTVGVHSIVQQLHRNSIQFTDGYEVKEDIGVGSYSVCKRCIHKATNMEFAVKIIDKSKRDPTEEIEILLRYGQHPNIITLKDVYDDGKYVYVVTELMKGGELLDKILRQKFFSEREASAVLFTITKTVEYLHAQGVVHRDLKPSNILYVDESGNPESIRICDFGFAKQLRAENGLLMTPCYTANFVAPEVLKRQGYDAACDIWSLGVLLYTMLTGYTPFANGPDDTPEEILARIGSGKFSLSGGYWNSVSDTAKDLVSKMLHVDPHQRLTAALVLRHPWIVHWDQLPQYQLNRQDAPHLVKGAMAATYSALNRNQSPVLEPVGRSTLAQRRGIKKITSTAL

This assay concerns the target Human RSK2 (Homo sapiens (Human), UniProt P51812). The assay can be described thus: Human RSK2 Assay (Kinase Glo Plus, residual ATP). In kind it is biochemical. To be noted: 0.75 nM His-RSK2, 0.75 μM ATP, 1.0 μM S6 Kinase/RSK Substrate Peptide 1. How it is done:
Experimental Method A: Human RSK2 Assay
Compounds are assessed for their ability to inhibit the phosphorylation of a substrate peptide by RSK2.
Human RSK2 protein, purchased from Invitrogen, is used to measure kinase activity utilizing Kinase Glo Plus (Promega) a homogeneous assay technology, which uses a luciferin-luciferase based ATP detection reagent to quantify residual ATP. The assay is performed using 0.75 nM His-RSK2, 0.75 μM ATP and 1.0 μM S6 Kinase/RSK Substrate Peptide 1 (Upstate, catalog #12-124), in assay buffer consisting of 25 mM HEPES, pH 7.5, 10 mM MgCl2, 5 mM MnCl2, 50 mM KCl, 0.2% BSA, 0.01% CHAPS, 100 μM Na3VO4, 0.5 mM DTT, and 1% DMSO. Solutions of test compounds at various concentrations are prepared by 1:3 fold serial dilution of a 1 mM solution of compound in DMSO. The DMSO solutions are further diluted with assay buffer to a final concentration of DMSO of 5%.
The assay is performed in a 384 well, white, non-binding plate (Corning, catalogue #3574). Solutions of test compounds (10 μL) are transferred to a dry assay plate, followed by addition of 20 μL kinase and 20 μL ATP+Substrate Peptide 1 described above. The kinase reaction mixture is incubated for 90 minutes at 28° C. followed by addition of 30 μL of ATP detection reagent for 15 minutes at room temperature. The relative light unit (RLU) signal is measured on a LJL Analyst (Molecular Devices) in luminescence mode using 384 aperture. The RLU signals were converted to percent of control (POC) values using the formula: POC=100*(BCTRL−Signal)/(BCTRL−PCTRL), where Signal is the test well RLU signal, BCTRL is the average of background (negative control), which consists of ATP+peptide and compound buffer, well signals on the plate, and PCTRL is the average of positive control, which consists of kinase, ATP+peptide, and compound buffer, well signals on the plate. For concentration-responsive compounds, POC as a function of test compound concentration are fitted to a 4-parameter logistic equation of the form: Y=A+(B−A)/[1+(x/C)^D], where A, B, C, and D are fitted parameters (parameter B is fixed at zero POC), and x and y are the independent and dependent variables, respectively. The IC50 (50% inhibitory concentration) is determined as the inflection point parameter, C. Experimental Method B: Human RSK2 Trans-Reporter Assay
The IC50 is the concentration that gives 50% inhibition. Take `C[C@H]1NC(=O)c2cc3ccc(C(=O)Nc4cnn(Cc5ccccc5)c4)nc3n2[C@H]1C` (relative stereo) [Example 61, N-(1-benzyl-1H-pyrazol-4-yl)-cis-8,9-dimethyl-6-oxo-6,7,8,9-tetrahydropyrido[3′,2′:4,5]pyrrolo[1,2-a]pyrazine-2-carboxamide]: the IC50 amounted to 0.34 nM. Take `C[C@@H]1NC(=O)c2cc3ccc(C(=O)Nc4cnn(Cc5ccccc5)c4)nc3n2[C@H]1C` (relative stereo) [Example 62, N-(1-benzyl-1H-pyrazol-4-yl)-trans-8,9-dimethyl-6-oxo-6,7,8,9-tetrahydropyrido[3′,2′:4,5]pyrrolo[1,2-a]pyrazine-2-carboxamide]: the IC50 turned out to be 3 nM. Turning to `CCn1c(NC(=O)c2ccc3cc4n(c3n2)[C@@H](C)[C@@H](C)NC4=O)nc2ccccc21` (relative stereo) [Example 73, N-(1-ethyl-1H-benzimidazol-2-yl)- cis-8,9-dimethyl-6-oxo-6,7,8,9-tetrahydropyrido[3′,2′:4,5]pyrrolo[1,2-a]pyrazine-2-carboxamide], the IC50 amounted to 11.6 nM. Take `CCn1c(NC(=O)c2ccc3cc4n(c3n2)[C@@H](C)[C@H](C)NC4=O)nc2ccccc21` (relative stereo) [Example 74, N-(1-ethyl-1H-benzimidazol-2-yl)- trans-8,9-dimethyl-6-oxo-6,7,8,9-tetrahydropyrido[3′,2′:4,5]pyrrolo[1,2-a]pyrazine-2-carboxamide]: the IC50 amounted to 1110 nM.

As for `C[C@H]1NC(=O)c2cc3ccc(C(=O)Nc4nc5ccccc5n4CCCN(C)C)nc3n2[C@H]1C` (relative stereo) [Example 77, N-{1-[3-(dimethylamino)propyl]-1H-benzimidazol-2-yl}-cis-8,9-dimethyl-6-oxo-6,7,8,9-tetrahydropyrido[3′,2′:4,5]pyrrolo[1,2-a]pyrazine-2-carboxamide], the IC50 was determined as 29 nM. In the case of `C[C@@H]1NC(=O)c2cc3ccc(C(=O)Nc4nc5ccccc5n4CCCN(C)C)nc3n2[C@H]1C` (relative stereo) [Example 78, N-{1-[3-(dimethylamino)propyl]-1H-benzimidazol-2-yl}-trans-8,9-dimethyl-6-oxo-6,7,8,9-tetrahydropyrido[3′,2′:4,5]pyrrolo[1,2-a]pyrazine-2-carboxamide], the IC50 was determined as 205 nM. For the compound `Cc1cc(NC(=O)c2ccc3cc4n(c3n2)[C@@H](C)[C@@H](C)NC4=O)no1` (relative stereo) [Example 85, Cis-8,9-dimethyl-N-(5-methyl-1,2-oxazol-3-yl)-6-oxo-6,7,8,9-tetrahydropyrido[3′,2′:4,5]pyrrolo[1,2-a]pyrazine-2-carboxamide], the IC50 is 2.6 nM. In the case of `Cc1cc(NC(=O)c2ccc3cc4n(c3n2)[C@@H](C)[C@H](C)NC4=O)no1` (relative stereo) [Example 86, Trans-8,9-dimethyl-N-(5-methyl-1,2-oxazol-3-yl)-6-oxo-6,7,8,9-tetrahydropyrido[3′,2′:4,5]pyrrolo[1,2-a]pyrazine-2-carboxamide], the IC50 was 110 nM. `C[C@H]1NC(=O)c2cc3ccc(C(=O)Nc4cc(Cc5ccccc5)on4)nc3n2[C@H]1C` (relative stereo) [Example 99, N-(5-benzyl-1,2-oxazol-3-yl)-cis-8,9-dimethyl-6-oxo-6,7,8,9-tetrahydropyrido[3′,2′:4,5]pyrrolo[1,2-a]pyrazine-2-carboxamide]: the IC50 worked out at 5.1 nM. The figure for `C[C@@H]1NC(=O)c2cc3ccc(C(=O)Nc4cc(Cc5ccccc5)on4)nc3n2[C@H]1C` (relative stereo) [Example 100, N-(5-benzyl-1,2-oxazol-3-yl)-trans-8,9-dimethyl-6-oxo-6,7,8,9-tetrahydropyrido[3′,2′:4,5]pyrrolo[1,2-a]pyrazine-2-carboxamide] is 57 nM; for `O=C(Nc1cccnc1)c1ccc2nc3n(c2c1)CCCNC3=O` [Example 1, 1-oxo-N-(pyridin-3-yl)-2,3,4,5-tetrahydro-1H-[1,4]diazepino[1,2-a]benzimidazole-8-carboxamide] it is 5600 nM; for `Cn1c(NC(=O)c2ccc3nc4n(c3c2)CCCNC4=O)nc2ccccc21` [Example 2, N-(1-methyl-1H-benzimidazol-2-yl)-1-oxo-2,3,4,5-tetrahydro-1H-[1,4]diazepino[1,2-a]benzimidazole-8-carboxamide] it is 35 nM. Consider `CCn1c(NC(=O)c2ccc3nc4n(c3c2)CCCNC4=O)nc2ccccc21` [Example 3, N-(1-ethyl-1H-benzimidazol-2-yl)-1-oxo-2,3,4,5-tetrahydro-1H-[1,4]diazepino[1,2-a]benzimidazole-8-carboxamide], for which the half-maximal inhibitory concentration (IC50) turned out to be 5.5 nM.

Regarding `CC(C)n1c(NC(=O)c2ccc3nc4n(c3c2)CCCNC4=O)nc2ccccc21` [Example 4, 1-oxo-N-[1-(propan-2-yl)-1H-benzimidazol-2-yl]-2,3,4,5-tetrahydro-1H-[1,4]diazepino[1,2-a]benzimidazole-8-carboxamide], the IC50 stood at 33 nM. The figure for `Cc1ccnc(NC(=O)c2ccc3nc4n(c3c2)CCCNC4=O)c1` [Example 5, N-(4-methylpyridin-2-yl)-1-oxo-2,3,4,5-tetrahydro-1H-[1,4]diazepino[1,2-a]benzimidazole-8-carboxamide] is 3200 nM.

Regarding `O=C(Nc1cnn(Cc2ccccc2)c1)c1ccc2nc3n(c2c1)CCCNC3=O` [Example 6, N-(1-benzyl-1H-pyrazol-4-yl)-1-oxo-2,3,4,5-tetrahydro-1H-[1,4]diazepino[1,2-a]benzimidazole-8-carboxamide], the IC50 came to 44 nM. With `Cc1nc(-c2cccc(NC(=O)c3ccc4nc5n(c4c3)CCCNC5=O)c2)cs1` [Example 7, N-[3-(2-methyl-1,3-thiazol-4-yl)phenyl]-1-oxo-2,3,4,5-tetrahydro-1H-[1,4]diazepino[1,2-a]benzimidazole-8-carboxamide], the IC50 amounted to 1700 nM. In the case of `O=C(Nc1cccc(F)c1)c1ccc2nc3n(c2c1)CCCNC3=O` [Example 8, N-(3-fluorophenyl)-1-oxo-2,3,4,5-tetrahydro-1H-[1,4]diazepino[1,2-a]benzimidazole-8-carboxamide], the IC50 was 960 nM. Consider `NC(=O)c1ccccc1NC(=O)c1ccc2nc3n(c2c1)CCCNC3=O` [Example 9, N-(2-carbamoylphenyl)-1-oxo-2,3,4,5-tetrahydro-1H-[1,4]diazepino[1,2-a]benzimidazole-8-carboxamide], for which the IC50 was 295 nM.

Take `Cn1cc(NC(=O)c2ccc3nc4n(c3c2)CCCNC4=O)nc1C(=O)NC1CCCC1` [Example 10, N-[2-(cyclopentylcarbamoyl)-1-methyl-1H-imidazol-4-yl]-1-oxo-2,3,4,5-tetrahydro-1H-[1,4]diazepino[1,2-a]benzimidazole-8-carboxamide]: the IC50 stood at 69 nM. For `CC(C)n1ncc2cc(NC(=O)c3ccc4nc5n(c4c3)CCCNC5=O)cnc21` [Example 11, 1-oxo-N-[1-(propan-2-yl)-1H-pyrazolo[3,4-b]pyridin-5-yl]-2,3,4,5-tetrahydro-1H-[1,4]diazepino[1,2-a]benzimidazole-8-carboxamide], the IC50 was 870 nM.

On to `O=C(Nc1cnc2ccccc2c1)c1ccc2nc3n(c2c1)CCCNC3=O` [Example 12, 1-oxo-N-(quinolin-3-yl)-2,3,4,5-tetrahydro-1H-[1,4]diazepino[1,2-a]benzimidazole-8-carboxamide], for which the IC50 is 1200 nM. As to `Cn1cc(NC(=O)c2ccc3nc4n(c3c2)CCCNC4=O)cn1` [Example 13, N-(1-methyl-1H-pyrazol-4-yl)-1-oxo-2,3,4,5-tetrahydro-1H-[1,4]diazepino[1,2-a]benzimidazole-8-carboxamide], the IC50 turned out to be 320 nM. The figure for `Cn1cc(NC(=O)c2ccc3nc4n(c3c2)C(C)(C)CCNC4=O)cn1` [Example 14, 5,5-dimethyl-N-(1-methyl-1H-pyrazol-4-yl)-1-oxo-2,3,4,5-tetrahydro-1H-[1,4]diazepino[1,2-a]benzimidazole-8-carboxamide] is 4000 nM; for `CCn1c(NC(=O)c2ccc3nc4n(c3c2)CCCNC4=O)nc2ccc(Cl)nc21` [Example 15, N-(5-chloro-3-ethyl-3H-imidazo[4,5-b]pyridin-2-yl)-1-oxo-2,3,4,5-tetrahydro-1H-[1,4]diazepino[1,2-a]benzimidazole-8-carboxamide] it is 45 nM. As to `CN(C)CCCn1c(NC(=O)c2ccc3nc4n(c3c2)CCCNC4=O)nc2ccccc21` [Example 16, N-{1-[3-(dimethylamino)propyl]-1H-benzimidazol-2-yl}-1-oxo-2,3,4,5-tetrahydro-1H-[1,4]diazepino[1,2-a]benzimidazole-8-carboxamide], the IC50 turned out to be 92 nM.
